“And” between values parts separate entries of the source, which are not always exact repeats. Identical values can stand only once.
Columns and labels:
[1] = ^18F-CML in vitro stability (RCP by paper chromatography at room temperature); type: physicochemical; settings: 6 h at room temperature (26±2°C)
Experimental: The in vitro stability of ^18F-CML was studied by storing the freshly prepared complex at room temperature (26±2°C) for a period of 6 h. The RCP was evaluated every 0.5 h using paper chromatography to determine its in vitro stability.

[2] = microPET imaging after intragastric administration; type: in vivo, ICR mice
Experimental: Male ICR mice weighing 18–20 g (7–8 wks old, n = 4) were kept fasting for 14 h […] and had free access to water before the experiments that followed. For the experiment, the mice were anesthetized and unconsciousness was maintained with a mixture of 1.5% isoflurane and nitrous oxide∶oxygen (7∶3). Approximately 3.0 MBq (80 µCi) of ^18F-labeled CML was administered via the gastrointestinal route. Five-minute static PET images were acquired at 15, 30, 60, 120 and 150 min post-injection.
Dynamic PET studies were performed using a dedicated microPET scanner for small animals. For imaging studies, the animals were under isoflurane anesthesia and then positioned and immobilized supine with their medial axis parallel to the axial axis of the scanner with the thorax and abdominal region (organs of interest: heart, liver, and kidneys) in the center of the field of view.
Approximately 5 min was needed to set the position of the animals after intragastric or intravenous administration of the drug solution containing ^18F-CML. Then, the emission data were acquired for 120 min. An attenuation map was created for each mouse by intravenously administering the residual ^18F-CML after acquisition of the emission data. […] The quantitative analyses of the hepatic and renal distributions of ^18F-CML were performed using ASIPro installed in the PET system.

HepG2 cells = test: Cell uptake of ^18F-CML and native CML in HepG2 cells; type: cell-based; settings: n=3, P<0.01, blocking with non-radioactive CML
Experimental: To compare the different bioactivities of CML and ^18F-CML, two cell lines were evaluated for their capacity to take up native CML and the fluorobenzoylated derivative ^18F-CML. RAW264.7 macrophages and HepG2 liver cells were cultured in DMEM/LOWGLUCOSE, supplemented with 10% fetal bovine serum (FBS), 4.0 mmol/L L-glutamine, 110 mg/L sodium pyruvate, 100 U/mL penicillin, and 100 mg/L streptomycin at 37°C and 5% CO2.
For ^18F-CML cell uptake studies, RAW264.7 cells and HepG2 cells were seeded into 24-well plates at a density of 4×10^5 cells per well. Radio-tracer ^18F-CML (0.5 µCi/well, 3 µmol/mL) was incubated in a 37°C water bath for 15, 30, 60, and 120 min. At each time point the cells were washed 3 times with phosphate-buffered saline (PBS). The supernatant, washing-up liquid (unbound activity) and the pellet (cell-bound activity) were transferred to new tubes. Triplicates of the counting tubes containing supernatant and cell pellet were counted individually using a gamma counter for 1 min. For the blocking experiment, the uptake was carried out in the presence of the non-radioactive CML(10 µmol/mL) and processed similarly as described above. The uptake (%) of radio-tracer into the cell was determined using a gamma counter according to the following equation: [drawing 1]
For CML cell uptake ratio studies, unaltered CML (10 µmol/mL) was added to RAW264.7 and HepG2 cell pellets individually. The total proteins of each cell line were initially extracted from the lysates of 4×10^5 cells. […] The supernatants were purified and detected usingby the method described by Drusch et al., which uses an RP-HPLC method with an ortho-phthaldialdehyde (OPA)-derivatisation and fluorescence detection suited for automation. The HPLC analysis method used a 250 mm×4.6 mm C18 column (GROM-SIL 100 ODS-0 AB, Herrenberg, Germany) and detected the fluorescence excitation at 340 nm and emission at 455 nm. The peak identification of CML was confirmed by the retention time and standard addition and was quantified using an external standard. The amount of CML was calculated and expressed as a percentage.

[3] = Biodistribution after intravenous administration; type: in vivo, ICR mice; settings: for Uptake in bladder, percentage of injected dose per whole tissue / Uptake in brain, percentage of injected dose per whole tissue / Uptake in heart, percentage of injected dose per whole tissue / Uptake in intestines, percentage of injected dose per whole tissue / Uptake in kidneys, percentage of injected dose per whole tissue / Uptake in liver, percentage of injected dose per whole tissue / Uptake in lungs, percentage of injected dose per whole tissue / Uptake in muscles, percentage of injected dose per whole tissue / Uptake in pancreas, percentage of injected dose per whole tissue / Uptake in stomach, percentage of injected dose per whole tissue: intravenous administration, n=3, mean ± SD
Experimental: The biodistribution of ^18F-CML was studied in eighteen young male ICR mice with a weight range of 18–20 g. Nine mice were used for intravenous administration and the other nine mice were used for intragastric administration.
For intravenous administration, ^18F-CML was injected into a lateral tail vein of the animals under light ether anesthesia. The injection volume (2–3 MBq; radiochemical purity 96%) was 0.1 mL. For intragastric administration, 1.5 MBq of ^18F-labeled CML was given via gastrointestinal tract tract.
The mice were sacrificed at 5, 60, and 120 min after administration of ^18F-CML (three mice at each time point). The animals were sacrificed by heart puncture under ether anaesthesia. The tissues and organs of interest were isolated and counted in a well-type γ counter. Additionally, 200 µL of blood was taken from the carotid artery. The distributions of ^18F-CML in different tissues and organs were calculated and expressed as the percent uptake of the injection dose per whole tissue (% ID).

[4] = intravenous, 60 min post-injection

O=C(O)CNCCCCC(NC(=O)c1ccc([18F])cc1)C(=O)O (stereo not shown) [^18F-CML]
Radiochemical purity (RCP) retained on storage (in vitro stability) [1]: 98.2±0.3% | Localization of radioactivity (PET) ([2]; first 15 min after administration via stomach tube): completely localized in the stomach | Resorption of radioactivity from the small intestine (PET) ([2]; within 2 h after application via stomach tube): not observed | Uptake of radioactivity in untreated cells relative to unlabelled CML-treated (blocked) cells (HepG2 cells): 1.6 fold | Radioactivity in stomach, lungs, liver and intestines taken together, of the total injected dose ([3]; intravenous): less than 10% | Uptake in bladder, percentage of injected dose per whole tissue ([3]; 5 min): 26.50±1.70 %ID | Uptake in brain, percentage of injected dose per whole tissue ([3]; 5 min): 3.04±0.02 %ID | Uptake in heart, percentage of injected dose per whole tissue ([3]; 5 min): 11.15±0.05 %ID | Uptake in intestines, percentage of injected dose per whole tissue ([3]; 5 min): 1.02±0.05 %ID | Uptake in kidneys, percentage of injected dose per whole tissue ([3]; 5 min): 29.30 %ID and 29.30±2.05 %ID | Uptake in liver, percentage of injected dose per whole tissue ([3]; 5 min): 17.28±2.04 %ID | Uptake in lungs, percentage of injected dose per whole tissue ([3]; 5 min): 1.65±0.05 %ID | Uptake in muscles, percentage of injected dose per whole tissue ([3]; 5 min): 8.02±0.82 %ID | Uptake in pancreas, percentage of injected dose per whole tissue ([3]; 5 min): 0.9±0.04 %ID | Uptake in stomach, percentage of injected dose per whole tissue ([3]; 5 min): 0.35±0.02 %ID | Uptake in bladder, percentage of injected dose per whole tissue ([3]; 60 min): 41.28±3.50 %ID | Uptake in brain, percentage of injected dose per whole tissue ([3]; 60 min): 0.38±0.01 %ID | Uptake in heart, percentage of injected dose per whole tissue ([3]; 60 min): 5.05±0.01 %ID | Uptake in intestines, percentage of injected dose per whole tissue ([3]; 60 min): 2.35±0.01 %ID | Uptake in kidneys, percentage of injected dose per whole tissue ([3]; 60 min): 35.6 %ID and 35.6±4.06 %ID | Uptake in liver, percentage of injected dose per whole tissue ([3]; 60 min): 9.72±1.62 %ID | Uptake in lungs, percentage of injected dose per whole tissue ([3]; 60 min): 1.12±0.02 %ID | Uptake in muscles, percentage of injected dose per whole tissue ([3]; 60 min): 5.17±1.12 %ID | Uptake in pancreas, percentage of injected dose per whole tissue ([3]; 60 min): 0.01±0.0 %ID | Uptake in stomach, percentage of injected dose per whole tissue ([3]; 60 min): 0.02±0.01 %ID | Uptake in bladder, percentage of injected dose per whole tissue ([3]; 120 min): 72.30±5.20 %ID | Uptake in brain, percentage of injected dose per whole tissue ([3]; 120 min): 0.07±0.00 %ID | Uptake in heart, percentage of injected dose per whole tissue ([3]; 120 min): 1.03±0.00 %ID | Uptake in intestines, percentage of injected dose per whole tissue ([3]; 120 min): 0.5±0.00 %ID | Uptake in kidneys, percentage of injected dose per whole tissue ([3]; 120 min): 18.1 %ID and 18.1±2.65 %ID | Uptake in liver, percentage of injected dose per whole tissue ([3]; 120 min): 3.28±0.05 %ID | Uptake in lungs, percentage of injected dose per whole tissue ([3]; 120 min): 0.25±0.00 %ID | Uptake in muscles, percentage of injected dose per whole tissue ([3]; 120 min): 3.02±0.82 %ID | Uptake in pancreas, percentage of injected dose per whole tissue ([3]; 120 min): 0.00±0.02 %ID | Uptake in stomach, percentage of injected dose per whole tissue ([3]; 120 min): 0.01±0.00 %ID | Injected dose found in the urine and stomach, lungs, liver and intestines [3, 4]: less than 50% | Remaining radioactivity located in the circulating blood [3, 4]: approximately 8%
